Test system: THP-1 cells
Assay: Cytokine expression (TNF-α, IL-8, MCP-1; ELISA) in TPA-differentiated THP-1 macrophage-like cells
Format: cell-based, human
Conditions: for activation of the MyD88 signaling pathway compared to Re-LPS/LPS: THP-1; for potency in induction of expression of IL-8 compared to Re-LPS/LPS / potency in induction of expression of TNF-α compared to Re-LPS/LPS: dose-dependent
Protocol: Lipid A mimetics 1–3 were examined for the ability to initiate the expression of tumor necrosis factor-α (TNF-α), interleukin-8 (IL-8), and monocyte chemotactic protein-1 (MCP-1) in the human monocytic macrophage-like cell line THP-1, which expresses MD-2, CD14, and a variety of cell surface receptors, including TLR4.
THP-1 cells were grown in RPMI-1640 cell-culture medium (Life Technologies) that was supplemented with 2 mM L-glutamine, 100 U/mL penicillin, 100 μg/mL streptomycin, and 10% FCS. Cells were seeded in a 96-well plate at 10^5 cells/well in 150 μL of complete medium and stimulated by 200 nM TPA for 24 h to induce the differentiation into macrophage-like cells.[59] […] Cells were stimulated with α,α-GM-LAMs 1–3 at the indicated concentration and with E. coliRe-LPS (or E. coli O111:B4 LPS), which were added as solutions in 10 μL of complete medium. The total volume of the well after stimulation reached 220 μL. The cells were incubated for 18 h, and the supernatants were analyzed for TNF-α, IL-8, and MCP-1 by ELISA (BD Biosciences).
Supplementary SI-Figure 2
E. coli wild type O111:B4 LPS is a large heterogeneous molecule with molecular weight (MW) comprising 10-15 kDa. Since we were particularly interested in the molecular recognition mechanisms implicated in the binding of LPS by the MD-2∙TLR4 complex wherein the Lipid A/Re-LPS (MW 1.8/2.2 kDa, respectively) portion of LPS is mostly involved, we have analyzed the dose-dependent THP-1 cells activation by synthetic α,α-GM-LAM 1-3 (at the concentrations 0.1 – 300 ng/ml) compared to E. coli Re-LPS which is more appropriate in this instance. Since the divergences in the expression of different cytokines by E. coli LPS vs. Re-LPS are only scarcely reported in the literature, we have performed dose-dependent activation experiments comparing expression of TNF-α, IL-8 and MCP-1 by E. coli O111:B4 LPS and E. coli Re-LPS at the concentrations 0.4 – 100 nM. Wild-type LPS (MW 10 […]
range (0.4 – 10 nM), whereas at the concentrations above 10 nM (50 nM for MCP-1) the levels of cytokines […]
This might be explained by a different aggregation state of Re-LPS and wild type LPS, and, therefore, the alterations in the transfer of a single LPS molecule to TLR4∙MD-2 complex by LBP and CD-14. Higher MW (> 10 kDa) of the LPS molecule applied for the calculations of the concentrations in [nM] would result in the shift of the activation profile induced by wild-type LPS. Calculation of EC50 values were hardly possible, since the maximum TLR4 saturation levels were not achieved at the concentrations tested.
SI-Figure 2. Dose-dependent expression of pro-inflammatory cytokines TNF-α, IL-8 and MCP-1 in human macrophage cell line THP-1 by E. coli Re-LPS compared to E. coli wild-type O111:B4 LPS. (A) Comparative expression of TNF-a; (B) comparative expression of IL-8; (C) comparative expression of MCP-1 […]
(1 picture or pasted object on this page, not shown here)
Supplementary SI-Figure 3
Dose-dependent responses (THP-1 cells: α,α-GM-LAM 1-3 and Re-LPS) at the concentration range 0.4 – 100 ng/ml which are presented in the Figure 5, were extended to the higher concentration range (up to 300 ng/ml).
SI-Figure 3. Dose-dependent expression of cytokines induced by α,α-GM-LAM 1-3 in macrophage cell line THP-1 compared to E. coli Re-LPS at the concentration range 0.4 – 300 ng/ml. (A) Production of TNF-α; (B) Induction of […]
Supplementary SI-Figure 4
Lipid A mimetic 1 was examined for the activation of NF-κB (Nuclear factor kappaB) and IRF3
(Interferon regulatory factor 3). IRF3 activation […]
noticeable after 1h stimulation, though was
LPS. At 1h stimulation the α,α-GM-LAM 1 was […]
whereas at 3h simulation compound 1 (at a […]
stronger phosphorylation of IκBa (P-IκBa levels) as well as the higher levels of IκBa (reflecting the NF-κB dependent re-synthesis of IκB following its
Thus, IRF3 activation and NF-κB activation […]
degradation and its NF-κB dependent resynthesis) […]
compared to LPS after 3h stimulation. […]

SMILES | activation of the MyD88 signaling pathway compared to Re-LPS/LPS | release of MCP-1 compared to Re-LPS and compound 1 (THP-1, 18 h) | potency in induction of expression of IL-8 compared to Re-LPS/LPS (THP-1, 18 h) | potency in induction of expression of TNF-α compared to Re-LPS/LPS (THP-1, 18 h) | induction of the expression of cytokines (THP-1, TNF-α, IL-8, MCP-1)
CCCCCCCCCCCCCC(=O)O[C@H](CCCCCCCCCCC)CC(=O)O[C@@H]1[C@@H](NC(=O)C[C@@H](CCCCCCCCCCC)OC(=O)CCCCCCCCCCC)[C@@H](O[C@H]2O[C@H](COP(=O)(O)O)[C@@H](OC(=O)C[C@@H](CCCCCCCCCCC)OC(=O)CCCCCCCCC)[C@H](O)[C@@H]2OC)O[C@H](CO)[C@H]1OP(=O)(O)O [Compound 2, 4-O-[(R)-3-(Decanoyloxy)tetradecanoyl]-2-O-methyl-6-O-phosphoryl-α-mannopyranosyl-(1↔1)-2-deoxy-2-[(R)-3-(dodecanoyloxy)tetradecanoylamino]-4-O-phosphoryl-3-O-[(R)-3-(tetradecanoyloxy)tetradecanoyl]-α-D-glucopyranoside] | more potent activators | clearly more effective | higher potency | higher potency | 
CCCCCCCCCCCCCC(=O)O[C@H](CCCCCCCCCCC)CC(=O)O[C@@H]1[C@@H](NC(=O)C[C@@H](CCCCCCCCCCC)OC(=O)CCCCCCCCCCC)[C@@H](O[C@H]2O[C@H](CO)[C@@H](OC(=O)C[C@@H](CCCCCCCCCCC)OC(=O)CCCCCCCCCCC)[C@H](O)[C@@H]2OC)O[C@H](CO)[C@H]1OP(=O)(O)O [Compound 3, 4-O-[(R)-3-(Dodecanoyloxy)tetradecanoyl]-2-O-methyl-α-D-mannopyranosyl-(1↔1)-2-deoxy-2-[(R)-3-(dodecanoyloxy)tetradecanoylamino]-4-O-phosphoryl-3-O-[(R)-3-(tetradecanoyloxy)tetradecanoyl]-α-D-glucopyranoside] |  |  |  |  | dampened induction
CCCCCCCCCCCCCC(=O)O[C@H](CCCCCCCCCCC)CC(=O)O[C@@H]1[C@@H](NC(=O)C[C@@H](CCCCCCCCCCC)OC(=O)CCCCCCCCCCC)[C@@H](O[C@H]2O[C@H](COP(=O)(O)O)[C@@H](OC(=O)C[C@@H](CCCCCCCCCCC)OC(=O)CCCCCCCCCCC)[C@H](O)[C@@H]2OC)O[C@H](CO)[C@H]1OP(=O)(O)O [Compound 1, 4-O-[(R)-3-(Dodecanoyloxy)tetradecanoyl]-2-O-methyl-6-O-phosphoryl-α-D-mannopyranosyl-(1↔1)-2-deoxy-2-[(R)-3-(dodecanoyloxy)tetradecanoylamino]-4-O-phosphoryl-3-O-[(R)-3-(tetradecanoyloxy)tetradecanoyl]-α-D-glucopyranoside] | more potent activators |  | higher potency | higher potency | 

Source: article PMC4191062, “Development of αGlcN(1↔1)αMan-Based Lipid A Mimetics as a Novel Class of Potent Toll-like Receptor 4 Agonists” (Journal of Medicinal Chemistry, 2014)
